Values of other authors in patent US20090274776A1, “Method for the Diagnosis and Treatment of Conditions Involving Aberrant Erythrocyte Potassium Levels” (THE REGENTS OF THE UNIVERSITY OF MICHIGAN, priority 2006, published 2009).

How the values were obtained:
RBC = RBC treated with the substance; by activation of IKCa
[1] = test system: endothelium-derived hyperpolarizing factor (EDHF); details: in the presence of apamin
KCa in RBC = biological target: T1, KCa in RBC (Homo sapiens, UniProt O15554); details: red blood cells
T1 construct: host or cells: red blood cells (endogenous channel)

Structure (SMILES)	K+ efflux in RBC (RBC)	EDHF relaxation [1]	effect on KCa in RBC (KCa in RBC)
Nc1nc2c(nc(Br)n2[C@@H]2O[C@@H]3COP(=O)(O)O[C@H]3[C@H]2O)c(=O)[nH]1 [8Br-cGMP]	increased		
OC1(c2cccc(Cl)c2)C2=NCCCN2c2ccccc21 (stereo not shown) [Ciclazindol]		abolishes	inhibits
CC1(C)Oc2ccc(C#N)cc2C(N2CCCC2=O)C1O (stereo not shown) [cromakalim]			opens
